Results taken from US10226449B2, “Heterocyclic modulators of lipid synthesis and combinations thereof” (priority 2013, dated 2019).
Like-named read-outs stand apart in the source and are kept apart here.

Legend:
[1] = mouse, in vivo
Protocol: (§1) The day of tumor cell inoculation is denoted as day 0. Drug treatment was initiated when the mean tumor size reached 149 mm^3 (day 15). […] Mice were assigned into treatment groups using a randomized block design based upon their tumor volumes. […] Tumor sizes were measured twice weekly in two dimensions using a caliper, and the volumes were expressed in mm^3 using the formula: V=0.5 a×b2 where a and b were the long and short diameters of the tumor, respectively. The study was terminated 6 hours post the 18th Qd dose on day 32 after tumor inoculation. Tumor growth inhibition (TGI) was calculated as the percentage of tumor growth, relative to tumor size at the start of treatment, in drug-treated groups compared to vehicle-treated groups. The Mann-Whitney U test was used to assess statistical significance of the mean tumor size between drug and vehicle-treated groups.

[2] = Tolerability in the single agent PANC-1 xenograft study; settings: 30/20 mg/kg Q5d; 18-day study; PANC-1 xenograft mice, 10 per group
Protocol: as §1

HCV1b replicon = HCV1b replicon antiviral assay (luciferase reporter); format: cell-based; settings: Hepatitis C virus; HCV genotype 1b replicon; read-out: HCV GT1b EC50
Protocol: The antiviral activities of the compounds were assessed using the HCV1b replicon system. […] HCV RNA replicon levels were assessed using the Bright-Glo™ Luciferase Assay System (Promega) to measure replicon-derived Luc activity.

CALU-6 xenograft tumors = assay: CALU-6 lung xenograft tumor growth inhibition with paclitaxel; format: in vivo, BALB/c-nude mice; settings: for TGI vs. Vehicle: day 21 post treatment start
Protocol: (§2) The day of tumor cell inoculation is denoted as day 0. After inoculation, the animals were checked daily for morbidity and mortality. At the time of routine monitoring, the animals were checked for any effects of tumor growth and treatments on normal behavior such as mobility, visual estimation of food and water consumption, body weight gain/loss (body weights were measured twice weekly), eye/hair matting and any other abnormal signs. […] Mice were assigned into treatment groups using a randomized block design based upon their tumor volumes. […] Tumor sizes were measured twice weekly in two dimensions using a caliper, and the volumes were expressed in mm^3 using the formula: V=0.5*(a*b^2) where a and b were the long and short diameters of the tumor, respectively. The study was terminated 6 hours post the last dose 17-28 days after treatment initiation. Tumor growth inhibition (TGI) was calculated as the percentage of tumor growth, relative to tumor size at the start of treatment, in drug-treated groups compared to vehicle-treated groups. The Mann-Whitney U test was used to assess statistical significance of the mean tumor size between drug and vehicle-treated groups
The study was terminated 21 days after initiation of treatment.

OVCAR-8 xenograft tumors = assay: OVCAR-8 ovarian xenograft tumor growth inhibition with paclitaxel; format: in vivo, BALB/c-nude mice; settings: day 21 post treatment start
Protocol: as §2
The study was terminated 28 days after initiation of treatment.

PANC-1 xenograft tumors = assay: PANC-1 pancreatic xenograft tumor growth inhibition with gemcitabine; format: in vivo, BALB/c-nude mice
Protocol: as §2

[3] = mouse, in vivo; remark: listed apart in the source
Protocol: as §2

[4] = mouse, in vivo; remark: listed apart in the source
Protocol: as §2

[5] = mouse, in vivo; remark: listed apart in the source
Protocol: as §2

[6] = system: COLO-205 xenograft tumors; assay: COLO-205 colon xenograft tumor growth inhibition with irinotecan
Protocol: as §2

[7] = irinotecan 10 mg/kg ip Q4d, single agent

C=C1C(=O)O[C@@H](CCCCCCCC)[C@@H]1C(=O)O (relative stereo) [Compound C75, trans-4-methylene-2-octyl-5-oxotetrahydrofuran-3-carboxylic acid]
tolerability in PANC-1 xenograft tumor-bearing mice [1]: drug-induced weight loss and toxicity | mice died from drug-related toxicity [2]: Six of the ten mice in the C75 treatment group died

CCN(CC)c1cc(C)c(C(=O)N2CCC(c3ccc(C#N)cc3)CC2)cc1-c1nnc(C)[nH]1 [Compound 129, 4-(1-(4-(diethylamino)-2-methyl-5-(5-methyl-4H-1,2,4-triazol-3-yl)benzoyl)piperidin-4-yl)benzonitrile]
EC50 (HCV1b replicon): 2.15 µM

Cc1cc(C)c(-c2[nH]c(C3CCOCC3)nc2C)cc1C(=O)N1CC(F)(c2ccc(C#N)cc2)C1 [Compound 167, 4-(1-(2,4-Dimethyl-5-(4-methyl-2-(tetrahydro-2H-pyran-4-yl)-1H-imidazol-5-yl)benzoyl)-3-fluoroazetidin-3-yl)benzonitrile]
EC50 (HCV1b replicon): 0.025 µM

Cc1cc(C)c(-c2[nH]nc(C)c2C)cc1C(=O)N1CC(c2ccc(C#N)cc2)C1 [Compound 242, 4-(1-(5-(3,4-Dimethyl-1H-pyrazol-5-yl)-2,4-dimethylbenzoyl)azetidin-3-yl)benzonitrile]
TGI vs. Vehicle (CALU-6 xenograft tumors; Compound 242 60 mg/kg po Qd): 14% | TGI vs. Vehicle (CALU-6 xenograft tumors; Compound 242 100 mg/kg po Qd): 0% | tumor growth inhibition, range over dose groups (CALU-6 xenograft tumors; Compound 242 single agent at 30, 60, or 100 mg/kg once daily for 21 days): 0-19% | TGI vs. Vehicle (OVCAR-8 xenograft tumors; Compound 242 30 mg/kg po Qd): 46% | TGI vs. Vehicle (OVCAR-8 xenograft tumors; Compound 242 100 mg/kg po Qd): 74% | TGI vs. Vehicle (PANC-1 xenograft tumors; Compound 242 30 mg/kg po Qd for 18 days): 9% | tolerability in CALU-6 xenograft tumor-bearing mice [3]: well tolerated as a single or combination agent | tolerability in OVCAR-8 xenograft tumor-bearing mice [4]: well tolerated as a single or combination agent | tolerability in PANC-1 xenograft tumor-bearing mice [5]: well tolerated as a single or combination agent | Body Weight Change (mouse, in vivo, po, 100 mg/kg): −12.0% | TGI vs. Vehicle ([6]; Compound 242 30 mg/kg po Qd for 20 days): 6%

Cc1ccc(C(=O)N2CCC(c3ccc(C#N)cc3)CC2)cc1-c1[nH]nc(Cl)c1C [Compound 253, 4-(1-(3-(3-Chloro-4-methyl-1H-pyrazol-5-yl)-4-methylbenzoyl)piperidin-4-yl)benzonitrile]
EC50 (HCV1b replicon): 0.22 µM

Nc1ccn([C@@H]2O[C@H](CO)[C@@H](O)C2(F)F)c(=O)n1 [Gemcitabine, gemcitabine, reference compound]
TGI vs. Vehicle (PANC-1 xenograft tumors; gemcitabine 10 mg/kg ip, single agent): 31%

CCc1c2c(nc3ccc(OC(=O)N4CCC(N5CCCCC5)CC4)cc13)-c1cc3c(c(=O)n1C2)COC(=O)[C@]3(O)CC [Irinotecan, irinotecan, reference compound]
Body Weight Change [7]: −10.2% | body weight loss (single agent irinotecan group, 10 mg/kg Q4d): 10.2% | TGI vs. Vehicle [6, 7]: 57%

CC(=O)O[C@H]1C(=O)[C@@]2(C)[C@H]([C@H](OC(=O)c3ccccc3)[C@]3(O)C[C@H](OC(=O)[C@H](O)[C@@H](NC(=O)c4ccccc4)c4ccccc4)C(C)=C1C3(C)C)[C@]1(OC(C)=O)CO[C@@H]1C[C@@H]2O [Paclitaxel, paclitaxel, reference compound]
TGI vs. Vehicle (CALU-6 xenograft tumors; paclitaxel 10 mg/kg ip Q4d): 63% | TGI vs. Vehicle (OVCAR-8 xenograft tumors; paclitaxel 10 mg/kg ip Q4d): 83%
